This is an account of results in US10945975B2, “Delaying latency to seizure by combinations of ketone supplements” (priority 2016, dated 2021).

Each structure is given as a SMILES string. Marks after values point to notes of the source that are not given here.

Format in all cases: in vivo, Sprague-Dawley rats
Series [1] relates to rat model of CNS-OT. Kind of series: Latency to seizure in rat model of CNS-OT (hyperbaric oxygen, 5 ATA). The conditions noted are these: 5 g/kg. The procedure:
(§1) The effect of various ketogenic compositions on latency to seizure and seizure severity was tested in a rat model of CNS-OT. Adult male Sprague-Dawley rats (n=60), 250-300 grams (Harlan) were used in the experiments described herein. Rats were given normal chow and water ad libitum and kept on a 12-hour light/dark cycle. At […], the rats were assigned to one of 5 treatment groups: control (water), 1,3-butanediol acetoacetate diester (KE, 10 g/kg), KE/2 (KE, 5 g/kg), KE+MCT (1,3-butanediol acetoacetate diester+medium chain triglyceride, 5 g/kg+5 g/kg) and KS+MCT (Na^+Ca^2+BHB 5 g/kg+MCT 5 g/kg). Rats received one dose of the designated ketogenic agent or water by oral gavage. Rats were then placed into the hyperbaric chamber 29-30 minutes after treatment, and pressurized to 5 atmospheres as provided below, such that rats were exposed to the hyperbaric conditions at 60 minutes after treatment.
The hyperbaric system consisted of two main elements: 1) a plexiglass chamber (˜3 liter capacity, Diamond Box, Buxco, Electronics Inc., model PLY3114), that housed the rat during the experiment, and 2) a hyperbaric chamber (Reimers System Inc.—7.8 ATA MWP), that contained the plexiglass chamber and functioned as the pressure vessel. Both chambers were connected to an air compressor (oil-less rotary scroll compressor—model DK6086, Powerex).
Rats were placed in the hyperbaric chamber, where the rats were allowed 10 minutes to acclimate in air. Then the plexiglass chamber was filled with pure oxygen, and the rats were allowed another 15 minutes to acclimate. The outer chamber was pressurized using air (capacity ˜205 liters) to minimize the risk of an electrical-induced fire. Next, both chambers were compressed to 5 atmospheres absolute (ATA) at a rate of approximately 1 ATA/min. Each experiment was visually monitored via a live camera.
Latency to seizure (LS) was calculated from the moment at which the internal and the external chambers reached 5 ATA until the onset of CNS-OT seizures, as identified above. After the onset of seizures, the plexiglass chamber was flushed with air to quickly terminate seizure, and both chambers decompressed to sea level. Decompression rate was 1 ATA/min. A small sample of blood was drawn and tested immediately for glucose and beta-hydroxybutyrate levels.

The test system of series [2] is rat model of CNS-OT. Kind of series: Seizure severity score in rat model of CNS-OT. The conditions noted are these: 5 g/kg, oral gavage; FIG. 4. The procedure:
as §1
Rats were placed in the hyperbaric chamber, where the rats were allowed 10 minutes to acclimate in air. Then the plexiglass chamber was filled with pure oxygen, and the rats were allowed another 15 minutes to acclimate. The outer chamber was pressurized using air (capacity ˜205 liters) to minimize the risk of an electrical-induced fire. […] Each experiment was visually monitored via a live camera. […]

Series [3] in a line: Blood beta-hydroxybutyrate (BHB) levels after removal from the hyperbaric chamber. The conditions noted are these: 5 g/kg, oral gavage. The procedure: as §1, with “Rats were then placed into the hyperbaric chamber 29-30 minutes after treatment, and pressurized to 5 atmospheres as provided below, such that rats were exposed to the hyperbaric conditions at 60 minutes after treatment.” left out
(§2) Latency to seizure (LS) was calculated from the moment at which the internal and the external chambers reached 5 ATA until the onset of CNS-OT seizures, as identified above. […]
(§3) Body weights were collected for all rats prior to oral gavage of treatment. Blood concentrations of glucose and beta-hydroxybutyrate (BHB) were determined utilizing a commercially available glucose/ketone monitoring system (Precision Xtra® blood glucose and ketone meter) immediately following removal from the hyperbaric chamber. […]

Series [4] can be described thus: Blood glucose levels after removal from the hyperbaric chamber. The note with it: 10 g/kg, oral gavage; FIG. 7. On the procedure:
as §1, with “Rats were then placed into the hyperbaric chamber 29-30 minutes after treatment, and pressurized to 5 atmospheres as provided below, such that rats were exposed to the hyperbaric conditions at 60 minutes after treatment.” left out
as §2, §3

`CC(=O)CC(=O)OCCC(C)OC(=O)CC(C)=O` (centres unmarked) [KE, 1,3-butanediol acetoacetate diester]: the “T-test (p), latency to time of seizure vs control” value is 0.256† in series [1] (one dose oral gavage, 5 ATA O2, all collected data) and 0.023* in series [1] (oral gavage, outliers excluded (2 standard deviations)). Further, the “Latency to seizure compared to control” value in series [1] (oral gavage, FIG. 1, all data) was “about 2 ×”. For the same molecule, in series [1] (outliers removed, FIG. 2), the “Latency to seizure compared to control (in words)” value is recorded as “significantly increased latency to seizure compared to control”. Moreover, the “Seizure severity (score 0-3) vs control, in words” value in series [2] was “some suppression”. For the same molecule, in series [3] (FIG. 6), the “Blood BHB levels compared to control” value was “about 3 ×”. Further, in series [3] (all collected data), the “T-test (p), BHB levels vs control” value is given as 0.0012**. In series [4], the “Blood glucose levels (in words)” value was “highest blood glucose levels”.
